Values after ≈ are worked out from the molar mass of the structure shown. Read-outs that look alike come from different tables or passages of the source.
Columns and labels:
[1] = DPPH radical scavenging (antioxidant) assay; conditions: for IC50: DPPH 300 μM, half an hour at 37°C; for DPPH radical scavenging activity compared to standard propyl gallate: in words
Method: The free radical scavenging capacity of the compounds was measured by 1,1-diphenyl-2-picrylhydrazyl. Test compounds were allowed to react with stable free radical, 1,1-diphenyl-2-picrylhydrazyl radical (DPPH) for half an hour at 37°C. The concentration of DPPH was kept as 300 μM. The test samples were dissolved in DMSO while the DPPH solution was prepared in ethanol. After incubation, decrease in absorption was measured at 515 nm using microplate reader. Percent radical scavenging activity of samples was determined in comparison with a DMSO treated as control. Propyl gallate and 3-tert-Butyl-4-hydroxyanisole were used as standards.

Escherichia coli = assay: Antibacterial activity, serial tube dilution MIC; assay type: cell-based; conditions: for MIC: Escherichia coli, 24 h, read-out: MIC E. coli; for Antibacterial activity against E. coli compared to standard ciprofloxacin: in words
Method: (§1) The antibacterial activity data is represented in Table 2. […] Ciprofloxacin was used as standard drug. The compounds were found active against bacterial strains (2 Gram positive bacteria, namely, Staphylococcus aureus, Bacillus subtilis, and 2 Gram negative bacteria namely Escherichia coli, Shigella flexneri) in variable concentration. The antibacterial activities of 1,3,4-oxadiazole derivatives were evaluated in vitro by serial tube dilution method. The compounds and standard drug ciprofloxacin were dissolved in N,N-dimethylformamide (DMF) to give a concentration of 5 μg/mL (stock solution). Necessary apparatus and test tubes set of capacity 5 mL was washed cleaned and completely dried. For the bacterial culture double strength nutrient broth was used. The culture media was made by dissolving 15 g of nutrient broth in 1 L of distilled water. Approximately, 1 mL of culture media was prepared and transferred to each test tube by micropipette and capped with non-adsorbent cotton plugs. The test tubes containing 1 mL culture media was sterilized in an autoclave at 121°C for 20 min at 15 psi pressure. Sub-culturing of bacteria was done by transferring a loopful of particular bacterial strain from standard bacterial agar to 10 mL sterilized nutrient broth aseptically in a laminar air flow cabinet. It was then incubated for a period of 24 h at 37°C in a B. O. D. incubator. Bacterial strain suspension was prepared, after 24 h incubation, by aseptically inoculating 0.2 mL of revived bacterial colony into 100 mL of 0.9% m/v saline. A series of 5 assay tubes for a single derivative against each bacterial strain was employed. A stock solution of each test derivative at concentration 5 μg/mL (containing 1 mL nutrient broth) was serially diluted to achieve concentrations of 2.5, 1.25, 0.625, 0.313, and 0.156 μg/mL. Then, 0.1 mL of normal saline suspension of revived bacteria was added to each test tube. The inoculated tubes were incubated at 37°C for 24 h. The MIC (minimum inhibitory concentration) values were determined by subsequently checking for the absence of visual turbidity.

Staphylococcus aureus = assay: Antibacterial activity, serial tube dilution MIC; assay type: cell-based; conditions: for MIC: Staphylococcus aureus, read-out: MIC S. aureus; for Antibacterial activity against S. aureus compared to standard ciprofloxacin: in words
Method: as §1

Shigella flexneri = assay: Antibacterial activity, serial tube dilution MIC; assay type: cell-based; conditions: for MIC: Shigella flexneri, read-out: MIC S. flexneri; for Antibacterial activity against S. flexneri compared to standard ciprofloxacin: in words
Method: as §1

Bacillus subtilis = assay: Antibacterial activity, serial tube dilution MIC; assay type: cell-based; conditions: for MIC: Bacillus subtilis, read-out: MIC B. subtilus
Method: as §1

Jack bean urease = Jack bean urease (Canavalia ensiformis, UniProt P07374); assay: biochemical; assay type: biochemical; conditions: for Urease inhibitory activity in words: qualitative statement
[2] = average of three readings, 24 h at 37°C

Jack bean urease, sequence (P07374 whole entry, looked up): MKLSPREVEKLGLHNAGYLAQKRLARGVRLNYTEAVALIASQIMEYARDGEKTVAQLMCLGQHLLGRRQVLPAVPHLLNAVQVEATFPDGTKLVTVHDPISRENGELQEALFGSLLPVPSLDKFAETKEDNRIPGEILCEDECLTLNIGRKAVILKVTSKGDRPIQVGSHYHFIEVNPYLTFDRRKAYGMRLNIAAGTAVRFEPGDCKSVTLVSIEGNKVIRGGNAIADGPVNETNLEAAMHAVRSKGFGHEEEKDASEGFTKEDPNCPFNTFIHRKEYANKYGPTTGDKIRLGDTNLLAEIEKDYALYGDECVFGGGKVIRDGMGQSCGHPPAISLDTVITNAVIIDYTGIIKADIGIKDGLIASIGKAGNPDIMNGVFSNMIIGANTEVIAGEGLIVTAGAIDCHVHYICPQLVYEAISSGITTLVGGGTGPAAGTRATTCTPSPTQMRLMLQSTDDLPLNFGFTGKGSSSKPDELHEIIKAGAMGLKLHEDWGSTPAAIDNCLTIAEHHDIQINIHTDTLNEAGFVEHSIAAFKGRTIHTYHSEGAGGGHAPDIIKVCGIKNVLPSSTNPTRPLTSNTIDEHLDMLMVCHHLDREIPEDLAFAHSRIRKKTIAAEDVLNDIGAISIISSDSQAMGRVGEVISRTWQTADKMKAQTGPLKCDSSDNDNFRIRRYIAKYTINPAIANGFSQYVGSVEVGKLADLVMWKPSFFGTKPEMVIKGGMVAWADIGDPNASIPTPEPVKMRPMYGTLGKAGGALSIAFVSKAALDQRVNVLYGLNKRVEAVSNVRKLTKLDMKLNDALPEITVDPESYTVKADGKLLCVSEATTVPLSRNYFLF

SMILES	IC50 [1]	MIC (Escherichia coli; [2])	MIC (Staphylococcus aureus; [2])	MIC (Shigella flexneri; 24 h)	MIC (Bacillus subtilis; [2])	IC50 (Jack bean urease)	MIC (Escherichia coli)	MIC (Shigella flexneri; [2])	Antibacterial activity against S. flexneri compared to standard ciprofloxacin (Shigella flexneri)	Antibacterial activity against B. subtilus relative to ciprofloxacin (Bacillus subtilis)	Urease inhibitory activity in words (Jack bean urease)	Antibacterial activity against S. aureus compared to standard ciprofloxacin (Staphylococcus aureus)	MIC (Bacillus subtilis; 24 h)	Antibacterial activity against E. coli compared to standard ciprofloxacin (Escherichia coli)	DPPH radical scavenging activity compared to standard propyl gallate [1]	MIC (Staphylococcus aureus; 24 h)	Urease inhibitory activity relative to the standard (thiourea) (Jack bean urease; more active than the standard)	IC50 (Jack bean urease; triplicate, thiourea standard, read-out: IC50 ± SEM, inhibitory activity against Jack bean urease)
COc1ccc(O)c(C(C)(C)C)c1 [3-tert-Butyl-4-hydroxyanisole, reference compound]	28.2 ± 1.1 µM																	
O=C(O)c1cn(C2CC2)c2cc(N3CCNCC3)c(F)cc2c1=O [Ciprofloxacin, reference compound]		0.156 µg/mL (≈ 0.471 µM)	0.156 µg/mL (≈ 0.471 µM)	0.31 µg/mL (≈ 0.936 µM)	0.625 µg/mL (≈ 1.89 µM)													
COc1ccc(-c2n[nH]c(=S)o2)c(OC)c1OC [Compound 4a, 5-(2,3,4-Trimethoxyphenyl)-1,3,4-oxadiazole-2(3H)-thione]	123 ± 5.1 µM		1.25 µg/mL (≈ 4.66 µM)		0.156 µg/mL (≈ 0.581 µM)	5.79 ± 0.3 µM	0.313 µg/mL (≈ 1.17 µM)	0.313 µg/mL (≈ 1.17 µM)	equipotent activity	4 fold								
S=c1[nH]nc(-c2cc3ccccc3[nH]2)o1 [Compound 4b, 5-(1H-Indol-2-yl)-1,3,4-oxadiazole-2(3H)-thione]	107 ± 3.4 µM	0.625 µg/mL (≈ 2.88 µM)	0.156 µg/mL (≈ 0.718 µM)			21.3 ± 0.7 µM		0.313 µg/mL (≈ 1.44 µM)	equipotent activity		nearly same activity	equipotent activity	0.313 µg/mL (≈ 1.44 µM)					
S=c1[nH]nc(Cc2ccc(Br)cc2)o1 [Compound 4c, 5-(4-Bromobenzyl)-1,3,4-oxadiazole-2(3H)-thione]	38 ± 4.1 µM	2.5 µg/mL (≈ 9.22 µM)	0.625 µg/mL (≈ 2.31 µM)			11.8 ± 0.4 µM		0.156 µg/mL (≈ 0.575 µM)	two-fold activities	4 fold			0.156 µg/mL (≈ 0.575 µM)	considerably less active	more effective			
S=c1[nH]nc(Cc2ccc(Cl)c(Cl)c2)o1 [Compound 4e, 5-(3,4-Dichlorobenzyl)-1,3,4-oxadiazole-2(3H)-thione]	59 ± 6.3 µM	0.156 µg/mL (≈ 0.597 µM)			0.625 µg/mL (≈ 2.39 µM)	11.3 ± 0.6 µM		0.313 µg/mL (≈ 1.2 µM)	equipotent activity					equipotent		0.313 µg/mL (≈ 1.2 µM)		
Fc1ccccc1Cc1n[nH]c(=S)o1 [Compound 4f, 5-(2-Fluorobenzyl)-1,3,4-oxadiazole-2(3H)-thione]	46.6 ± 4.6 µM	0.313 µg/mL (≈ 1.49 µM)	0.156 µg/mL (≈ 0.742 µM)		0.156 µg/mL (≈ 0.742 µM)	3.27 ± 0.3 µM		1.25 µg/mL (≈ 5.95 µM)		4 fold		equipotent activity						
COc1ccc(CCc2n[nH]c(=S)o2)cc1 [Compound 4g, 5-(4-Methoxyphenethyl)-1,3,4-oxadiazole-2(3H)-thione]	50.8 ± 2.1 µM	0.156 µg/mL (≈ 0.66 µM)	2.5 µg/mL (≈ 10.6 µM)		0.625 µg/mL (≈ 2.64 µM)	5.61 ± 0.3 µM		0.313 µg/mL (≈ 1.32 µM)	equipotent activity					equipotent				
S=c1[nH]nc(Cc2ccc(Cl)cc2Cl)o1 [Compound 4h, 5-(2,4-Dichlorobenzyl)-1,3,4-oxadiazole-2(3H)-thione]	57.8 ± 1.8 µM	1.25 µg/mL (≈ 4.79 µM)	0.625 µg/mL (≈ 2.39 µM)			42.4 ± 1.2 µM		0.156 µg/mL (≈ 0.597 µM)	two-fold activities	4 fold	weak inhibitory activities		0.156 µg/mL (≈ 0.597 µM)	considerably less active				
COc1ccccc1CCc1n[nH]c(=S)o1 [Compound 4i, 5-(2-Methoxyphenethyl)-1,3,4-oxadiazole-2(3H)-thione]	40.2 ± 3.3 µM	0.156 µg/mL (≈ 0.66 µM)			0.625 µg/mL (≈ 2.64 µM)	6.22 ± 0.4 µM		0.313 µg/mL (≈ 1.32 µM)	equipotent activity					equipotent	Equipotent	0.313 µg/mL (≈ 1.32 µM)		
S=c1[nH]nc(Cc2ccc(Cl)cc2)o1 [Compound 4j, 5-(4-Chlorobenzyl)-1,3,4-oxadiazole-2(3H)-thione]	51.6 ± 2.1 µM	0.313 µg/mL (≈ 1.38 µM)	0.313 µg/mL (≈ 1.38 µM)		1.25 µg/mL (≈ 5.51 µM)	1.15 ± 0.2 µM		0.156 µg/mL (≈ 0.688 µM)	two-fold activities								20 fold	
S=c1[nH]nc(Cc2ccccc2Cl)o1 [Compound 4k, 5-(2-Chlorobenzyl)-1,3,4-oxadiazole-2(3H)-thione]	34.4 ± 3.2 µM				0.313 µg/mL (≈ 1.38 µM)	12.9 ± 0.6 µM	0.156 µg/mL (≈ 0.688 µM)	0.156 µg/mL (≈ 0.688 µM)	two-fold activities			equipotent activity		equipotent	more effective	0.156 µg/mL (≈ 0.688 µM)		
COc1ccc(Cc2n[nH]c(=S)o2)cc1 [Compound 4l, 5-(4-Methoxybenzyl)-1,3,4-oxadiazole-2(3H)-thione]	88.2 ± 4.1 µM	0.313 µg/mL (≈ 1.41 µM)	0.625 µg/mL (≈ 2.81 µM)		2.5 µg/mL (≈ 11.2 µM)	5.83 ± 0.08 µM		0.156 µg/mL (≈ 0.702 µM)	two-fold activities									
COc1ccccc1Cc1n[nH]c(=S)o1 [Compound 4m, 5-(2-Methoxybenzyl)-1,3,4-oxadiazole-2(3H)-thione]	42.7 ± 3.7 µM	0.625 µg/mL (≈ 2.81 µM)	1.25 µg/mL (≈ 5.62 µM)		0.156 µg/mL (≈ 0.702 µM)	5.6 ± 0.6 µM		0.313 µg/mL (≈ 1.41 µM)	equipotent activity	4 fold								
CCCOC(=O)c1cc(O)c(O)c(O)c1 [Propyl gallate, reference compound]	40.8 ± 1.2 µM																	
NC(N)=S [Thiourea, reference compound]																		22.3 ± 1.2 µM
